From patent US20250367111A1, “DELIVERY OF SUSTAINED LOCAL AND SYSTEMIC IMMUNOMODULATION” (Northeastern University, priority 2024, published 2025)

Legend:
TNBC = settings: cited from earlier work
[1] = intratumoral; 40 patients with advanced metastatic solid tumors or lymphomas; cited from earlier work
[2] = test system: mammary glands of BRCA1-deficient mice; assay: Cancer biomarkers (PCNA, γ-H2AX) in mammary glands of BRCA1-deficient mice; assay type: in vivo; settings: mammary glands harvested 4 weeks after treatment
Method: InCeT-TLZ favorably alters cancer biomarkers compared with systemic administration or empty implants. Mammary glands were harvested 4 weeks after BRCA1-deficient mice were treated with implants (InCeT-TLZ or empty InCeT) or free TLZ. As shown in, over half of the epithelial cells in the mammary glands of mice treated with empty InCeT were positive for PCNA, confirming robust proliferation.

[3] = EMBRACA, cited from earlier work
[4] = test system: Brca2−/−p53−/−R172H Pten−/− intraperitoneal disseminated metastatic ovarian cancer model; assay: Survival in intraperitoneal disseminated metastatic ovarian cancer model; assay type: in vivo; settings: i.p.; 50 μg TLZ over 21 days (implant or equivalent dose by periodic injections)
Method: In a Brca2^−/−p53^−/−R172H Pten^−/− intraperitoneal disseminated metastatic ovarian cancer model, SMAART-TLZ i.p implants (50 μg TLZ release over 21 days) increased median survival to 92 days compared to periodic i.p injections of TLZ at the equivalent drug dose over 21 days (70 days median OS-FIG. 6A).

[5] = Blood cell count with Procyte Dx Analyzer after oral TLZ; assay type: in vivo; settings: BRCA−/− breast cancer mice, indicative of bone marrow toxicity
Description: PARPi have been limited due to induction of bone marrow toxicity.

[6] = test system: BRCA−/− model with conditional BRCA1/2, PTEN, and TP53 deletions (mFT3666); assay: Survival in BRCA−/− mOC model (mFT3666); assay type: in vivo, mice; settings: free TLZ; control ~57 days
Method: Sustained PARP inhibition doubles survival in BRCA^−/− mOC model. Therapeutic efficacy was tested in vivo in a BRCA^−/− model with conditional BRCA1/2, PTEN, and TP53 deletions (mFT3666) that mimics late stage disseminated disease. Free TLZ slowed disease progression and extended median survival to ˜70 days, compared with control (˜57 days). These animals eventually developed severe ascites and had to be sacrificed. A InCeT-TLZ implant loaded with 50 μg of TLZ was injected into the peritoneal cavity using an 18 gauge needle every 25 days. Most of the InCeT-TLZ group of animals survived until 93 days, with some developing ascites.

O=C(c1cc(Cc2n[nH]c(=O)c3ccccc23)ccc1F)N1CCN(C(=O)C2CC2)CC1 [olaparib]
overall response rate (ORR) (TNBC; human, in vivo): 59.9%
progression-free survival (PFS) (TNBC; vs. 4.2 months standard chemotherapy): 7 months

Nc1ncnc2c1ncn2[C@@H]1O[C@@H]2COP(=O)([S-])O[C@@H]3[C@H](O)[C@@H](COP([O-])(=S)O[C@H]2[C@H]1O)O[C@H]3n1cnc2c(N)ncnc21.[Na+].[Na+] (stereo partly shown) [ADU-S100]
dose-limiting toxicities [1]: no dose-limiting toxicities

Cn1ncnc1[C@H]1c2n[nH]c(=O)c3cc(F)cc(c23)N[C@@H]1c1ccc(F)cc1 [TLZ, Talazoparib]
reduction of PCNA+ cells [2]: ~50%
γ-H2AX expression [2]: but not free TLZ increased γ-H2AX expression
patients with adverse events [3]: 65%
patients with adverse events needing dose reduction below the therapeutic level ([3]; of those patients): 53%
median survival [4]: 70 days
red blood cells [5]: decrease in red blood cells
median survival [6]: ~70 days
